Laboratory results from patent publication US20250032489A1, “MIXED LINEAGE KINASE INHIBITORS AND METHODS OF USE” (The U.S.A., as represented by the Secretary, Department of …, priority 2022, published 2025).
Where two headings read alike, the source gives them in different places.

Legend:
LZK [1] = target: T1, LZK (Homo sapiens (Human), UniProt O43283); experiment: Immunoblot of downstream JNK phosphorylation in CAL33 cells with dox-inducible LZK; format: cell-based
Procedure: (§1) The ViraPower HiPerform T-REx Gateway Expression System (Invitrogen) was used to generate cells with tetracycline-inducible expression of LZK. […] Cell lines were generated by antibiotic selection (blasticidin [Gibco] and geneticin [Gibco]). Doxycycline (Sigma-Aldrich) was used at 1 μg/mL to induce LZK expression.
(§2) After appropriate treatment time, cells were washed with ice-cold phosphate-buffered saline without Ca and Mg (Quality Biological) and then lysed on ice with RIPA buffer ([…], 1.0% IGEPAL® CA-630, 0.5% sodium deoxycholate, 0.1% SDS, 50 mM Tris, pH 8.0) (Sigma-Aldrich) supplemented with protease inhibitor tablet (Sigma-Aldrich) and phosphatase inhibitor cocktails 2 and 3 (Sigma-Aldrich) followed by centrifugation at 15,000 rpm for 10 minutes at 4° C. Protein concentrations were determined from the cell lysate by using 660 nm Protein Assay Reagent (Pierce). Cell extracts were denatured, subjected to SDS-PAGE, transferred to PVDF membranes (Bio-Rad) and blocked for 2 hours using 5% bovine serum albumin (BSA) in phosphate-buffered saline and 0.1% Tween® 20 (PBS-T). The membranes were incubated with the specific antibodies overnight in 5% BSA/PBST at 4° C. followed by a 1 hour incubation with the appropriate horseradish peroxidase-conjugated secondary antibodies and signal was detected by chemiluminescence (Thermo Fisher).

LZK [2] = target: LZK (Homo sapiens, UniProt O43283, Q240S); experiment: as above; format: cell-based; details: in the presence of inhibitor
Procedure: as §1, §2

LZK [3] = target: T1, LZK; experiment: In vitro kinase assay, LZK phosphorylation of MKK7; format: biochemical
Procedure: The assay was performed with 100 μM ATP at 37° C. for 30 minutes. Following the addition of 4× reducing SDS sample buffer, proteins were resolved by sodium dodecyl sulfate-polyacrylamide gel electrophoresis (SDS-PAGE) and immunoblot analysis was performed as stated previously.

BICR56 cells [4] = experiment: Colony formation assay; format: cell-based; details: 200 nM, 14 days
Procedure: (§3) Crystal violet assays were used to assess relative cell growth and survival after treatment with specific compounds. In general, cells were plated in triplicate in 12-well plates for 24 hours before drug treatments were added using 10% FBS media. The plates were incubated for 14 days, with the media and drug being replaced every 48 hours. The cells were then washed with phosphate-buffered saline and fixed in ice-cold methanol before being stained with 0.5% crystal violet (Sigma-Aldrich) in 25% methanol. Images were taken using a ChemiDoc MP Imaging System (Bio Rad), and for quantification, the crystal violet stain was dissolved in 33% acetic acid, incubated for 20 minutes with shaking, and read at 595 nm using iMark™ Microplate Absorbance Reader (Bio-Rad). Graphs display percent colony formation relative to the DMSO-treated control sample.

CAL33 cells = experiment: Colony formation assay; format: cell-based; details: 200 nM, 14 days
Procedure: as §3

LK2 cells = experiment: Colony formation assay; format: cell-based; details: 500 nM
Procedure: as §3

MSK921 cells = experiment: Colony formation assay; format: cell-based; details: 200 nM, 14 days, cells lacking amplified MAP3K13
Procedure: as §3

NCI-H520 cells = experiment: Colony formation assay; format: cell-based; details: 500 nM
Procedure: as §3

BEAS-2B cells = experiment: Colony formation assay; format: cell-based, human; details: 200 nM, 14 days, cells lacking amplified MAP3K13
Procedure: as §3

BICR56 cells [5] = experiment: MTS cell viability assay; format: cell-based; details: 72 hours MTS
Procedure: A Cell Titer 96 AQueous One Solution Cell Proliferation Assay (Promega) was used for MTS assays following the manufacturer's protocol. […] MTS was added, cells were incubated for two hours, and absorbance was measured at 490 nm using iMark™ Microplate Absorbance Reader (Bio-Rad). Graphs display percent cell viability relative to the DMSO-treated control sample. EC50 values were determined using GraphPad Prism 8.

[6] = tested on: 3q-amplified HNSCC PDX tumors; experiment: HNSCC PDX mouse model with amplified MAP3K13 (LZK); format: in vivo
Procedure: Tumor pieces at approximately 2×2×2 mm^3 from an HNSCC patient containing amplified MAP3K13 were implanted subcutaneously with Matrigel (Corning) in the mice according to the SOP50101 Implantation and Cryopreservation of Tissue for PDX Generation protocol from the NIH Patient-Derived Models Repository (PDMR). Five NSG mice were used for initial implantation of the cryopreserved tumor fragments. Body weights and tumor size were measured twice weekly. […] For the efficacy study, passage one of the fresh PDX tumor fragments were implanted into NSG mice using the protocol stated previously. […] Body weights and tumor sizes were measured twice weekly. At the endpoint of each study, tumors were harvested, cleaned, weighed, and photographed for analysis.

[7] = tested on: HNSCC PDX tumors lacking amplified LZK; experiment: HNSCC PDX mouse models that lack amplified LZK; format: in vivo; details: 50 mg/kg, q.d., five days on/two days off
c-MYC = experiment: Western blot of c-MYC abundance; format: cell-based
Procedure: as §2, with “Generally, cells were plated in six-well or 35-mm plates for 24 hours, after which doxycycline was added or treatment with specific inhibitor was administered using 5% FBS media for 48 hours. After” for “After”

LZK [8] = experiment: Immunoblot of JNK signaling in 293T cells overexpressing LZK; format: cell-based; details: one-hour treatment
Procedure: LZK cDNA was prepared from RNA extracted from 293T cells, attB flanking regions were added by PCR, and the BP Clonase reaction was used to insert LZK into pDONR221. From here, the Invitrogen Gateway system was used for cloning into destination vectors. FLAG-tagged (pReceiver-M12, GeneCopoeia) destination vector was conveed into Gateway destination vector for use in transient overexpression assays. The pLenti6.3/TO/V5-DEST vector was used to generate stable overexpression. The drug-resistant construct for LZK was a Q240S mutation that was introduced using a Site-Directed Mutagenesis Kit (Stratagene). The oligonucleotides are listed below in Table 18. 293T cells were transiently transfected using Lipofectamine 2000 (Invitrogen), according to the manufacturer's protocol, with OptiMEM (Gibco). […]
Generally, cells were plated in six-well or 35-mm plates for 24 hours, after which doxycycline was added or treatment with specific inhibitor was administered using 5% FBS media for 48 hours. […] Protein concentrations were determined from the cell lysate by using 660 nm Protein Assay Reagent (Pierce). […] The membranes were incubated with the specific antibodies overnight in 5% BSA/PBST at 4° C. followed by a 1 hour incubation with the appropriate horseradish peroxidase-conjugated secondary antibodies and signal was detected by chemiluminescence (Thermo Fisher).

[9] = tested on: ESCC with the 3q amplicon (KYSE30, and KYSE70 cells); experiment: MTS assay in ESCC cells; format: cell-based; details: compared to control ESCC cells lacking amplified LZK (KYSE410 and OE19)
Procedure: A Cell Titer 96 AQueous One Solution Cell Proliferation Assay (Promega) was used for MTS assays following the manufacturer's protocol. […] Doxycycline was added where appropriate, and cells were incubated for 72 hours. MTS was added, cells were incubated for two hours, and absorbance was measured at 490 nm using iMark™ Microplate Absorbance Reader (Bio-Rad). Graphs display percent cell viability relative to the DMSO-treated control sample. EC50 values were determined using GraphPad Prism 8.

CAL33 xenografts = experiment: HNSCC CAL33 xenograft mouse model; details: 100 mg/kg
DLK = DLK (Homo sapiens (Human), UniProt Q12852); experiment: KD determination, Eurofins DiscoveRx Kd-Elect; format: binding
Procedure: (§4) Substituents were varied to improve binding affinity to LZK and selectivity over DLK. KD values were measured by Eurofins DiscoveRx using the Kd-Elect system. Parallel artificial membrane permeability assay (PAMPA) values were measured by Cyprotex.
(§5) KD values were calculated with a standard dose-response curve using the Hill equation: […]
(§6) The Hill Slope was set to −1. Curves were fitted using a non-linear least square fit with the Levenberg-Marquardt algorithm.

LZK [10] = target: T1, LZK; experiment: KD determination, Eurofins DiscoveRx Kd-Elect; format: binding
Procedure: as §4, §5, §6

LZK [11] = target: T1, LZK; experiment: Phospho-JNK ELISA in doxycycline-induced CAL33 cells expressing LZK; format: cell-based
Description: The ViraPower HiPerform T-REx Gateway Expression System (Invitrogen) was used to generate cells with tetracycline-inducible expression of LZK. In brief, wild-type (WT) or drug-resistant mutant (Q240S) LZK (cloned into pLenti6.3/TO/V5-DEST vector) and pLenti3.3/TR (for tetracycline repressor expression) were transfected into 293FT cells using Lipofectamine 2000 to generate lentiviral stock. Cell lines were generated by antibiotic selection (blasticidin [Gibco] and geneticin [Gibco]). Doxycycline (Sigma-Aldrich) was used at 1 μg/mL to induce LZK expression.
A PathScan® Phospho-SAPK/JNK (Thr183/Tyr185) Sandwich ELISA Assay (Cell Signaling Technology) was used for ELISA assays following the manufacturer's protocol. In general, 500,000 cells were plated and treated with doxycycline the following day where appropriate and incubated at 37° C. for 48 hours. Cells were treated with the drug compound or control in 5% FBS media for 1 hour. After appropriate treatment time, cells were lysed on ice with 1× Cell Lysis Buffer (Cell Signaling Technology) supplemented with phosphatase and protease inhibitors (Sigma). Each diluted cell lysate was added to Phospho-SAPK/JNK (Thr183/Tyr185)Rabbit mAb Coated microwells in triplicate and incubated overnight at 4° C. Samples were treated with the following antibodies and incubated at 37° C. for 1 hour and 30 minutes, respectively: Detection Antibody and HRP-Linked secondary antibody. Samples were washed between treatments using 1× Wash Buffer according to the manufacturer's protocol. TMB substrate was added to each well and incubated at 37° C. for 10 minutes. Following this, STOPsolution was added to each well and absorbance was measured at 450 nm using iMark™ Microplate Absorbance Reader (Bio-Rad). Graphs display relative phospho-JNK levels.

OVCAR5 cells = experiment: Colony formation assay; format: cell-based
Procedure: as §3

[12] = tested on: ESCC cells with the 3q amplicon; experiment: Colony formation assay in ESCC cells; format: cell-based; details: drug resistant mutant form of LZK
Description: Crystal violet assays were used to assess relative cell growth and survival after treatment with specific compounds. […] Graphs display percent colony formation relative to the DMSO-treated control sample.

[13] = b.i.d., five days on/two days off

T1 sequence (O43283 whole entry): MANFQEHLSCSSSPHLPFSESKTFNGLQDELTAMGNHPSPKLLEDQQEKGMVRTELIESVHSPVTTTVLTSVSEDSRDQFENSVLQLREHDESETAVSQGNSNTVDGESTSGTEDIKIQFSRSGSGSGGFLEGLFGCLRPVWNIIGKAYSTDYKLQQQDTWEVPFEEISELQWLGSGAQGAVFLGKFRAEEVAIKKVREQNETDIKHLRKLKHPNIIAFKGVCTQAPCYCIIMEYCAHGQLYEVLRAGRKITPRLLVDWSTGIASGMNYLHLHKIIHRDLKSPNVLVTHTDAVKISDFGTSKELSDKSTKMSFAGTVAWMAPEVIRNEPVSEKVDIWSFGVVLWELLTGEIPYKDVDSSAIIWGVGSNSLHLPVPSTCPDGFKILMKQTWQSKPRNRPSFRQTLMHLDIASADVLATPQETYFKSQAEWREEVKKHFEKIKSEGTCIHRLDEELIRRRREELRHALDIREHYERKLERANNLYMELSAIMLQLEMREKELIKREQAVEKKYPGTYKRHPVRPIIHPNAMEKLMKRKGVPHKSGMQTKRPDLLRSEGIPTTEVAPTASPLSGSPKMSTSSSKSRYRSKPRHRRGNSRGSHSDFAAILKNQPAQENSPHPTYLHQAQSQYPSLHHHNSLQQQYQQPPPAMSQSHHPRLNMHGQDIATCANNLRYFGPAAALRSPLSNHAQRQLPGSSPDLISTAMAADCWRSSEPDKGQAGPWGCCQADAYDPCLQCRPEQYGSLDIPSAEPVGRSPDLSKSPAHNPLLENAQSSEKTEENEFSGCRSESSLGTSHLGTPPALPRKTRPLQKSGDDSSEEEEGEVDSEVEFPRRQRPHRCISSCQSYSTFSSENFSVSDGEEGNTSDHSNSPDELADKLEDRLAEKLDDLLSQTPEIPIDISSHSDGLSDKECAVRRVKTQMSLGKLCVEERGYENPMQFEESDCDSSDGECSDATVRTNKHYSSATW
LZK (Homo sapiens, UniProt O43283, Q240S), sequence (O43283 whole entry Q240S): as the sequence (O43283 whole entry) above, with Q240S counted along it
DLK, sequence (Q12852 whole entry): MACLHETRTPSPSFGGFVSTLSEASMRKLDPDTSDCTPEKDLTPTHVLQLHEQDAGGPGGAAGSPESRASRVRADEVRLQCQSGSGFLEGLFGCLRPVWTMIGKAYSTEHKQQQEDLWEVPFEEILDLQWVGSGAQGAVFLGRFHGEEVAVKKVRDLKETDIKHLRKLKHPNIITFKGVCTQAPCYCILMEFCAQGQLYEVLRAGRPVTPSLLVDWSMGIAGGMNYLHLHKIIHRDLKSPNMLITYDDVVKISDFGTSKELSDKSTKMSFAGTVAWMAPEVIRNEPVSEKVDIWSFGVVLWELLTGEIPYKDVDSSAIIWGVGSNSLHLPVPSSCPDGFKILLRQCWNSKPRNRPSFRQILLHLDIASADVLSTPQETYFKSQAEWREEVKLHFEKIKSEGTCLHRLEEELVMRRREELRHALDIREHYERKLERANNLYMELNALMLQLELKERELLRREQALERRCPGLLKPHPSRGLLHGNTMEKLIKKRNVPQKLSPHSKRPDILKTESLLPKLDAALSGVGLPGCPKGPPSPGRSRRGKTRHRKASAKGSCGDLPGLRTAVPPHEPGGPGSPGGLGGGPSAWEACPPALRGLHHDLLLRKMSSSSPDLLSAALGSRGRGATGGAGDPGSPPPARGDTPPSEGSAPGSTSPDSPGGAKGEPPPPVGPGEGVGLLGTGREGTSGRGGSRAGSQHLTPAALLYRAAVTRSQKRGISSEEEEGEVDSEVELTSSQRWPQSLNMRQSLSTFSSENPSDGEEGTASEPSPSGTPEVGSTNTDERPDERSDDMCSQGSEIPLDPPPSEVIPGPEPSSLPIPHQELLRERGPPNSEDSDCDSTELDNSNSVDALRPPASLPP

SMILES: N#Cc1ccnc(Nc2cc(C3CCN(C4COC4)CC3)cc(N3CCC(F)(F)C3)n2)c1 [GNE-3511]
- duration of JNK pathway inactivation (LZK [1]; 250 nM): up to 72 hours
- time at which LZK activity toward JNK was inhibited (LZK [1]; 250 nM): ≤ 15 min
- inhibition of LZK activity in cells (downstream JNK phosphorylation) (LZK [1]; Western blot): potent LZK inhibitor in cells
- JNK signaling with LZK^Q240S drug-resistant mutant expression (LZK [2]): maintained catalytic activity
- in vitro phosphorylation of MKK7 (LZK [3]): decreased in vitro phosphorylation of MKK7
- reduction in colony formation (BICR56 cells [4]): ≥ 80%
- reduction in colony formation (CAL33 cells): ≥ 80%
- reduction in colony formation (LK2 cells): 45%
- reduction in colony formation (MSK921 cells): minor reduction in colony formation
- reduction in colony formation (NCI-H520 cells): 55%
- reduction in colony formation (BEAS-2B cells): minor reduction in colony formation
- IC50 (BICR56 cells [5]): 410 ± 59.6 nM
- body weights of the mice ([6]; 50 mg/kg daily): no effect on body weights
- mice with no detectable tumors ([6]; 50 mg/kg, n=10): 3 mice
- tumor growth ([6]; 50 mg/kg, q.d., five days on/two days off): significantly suppress HNSCC tumor growth in vivo with almost complete tumor regression
- tumor volumes [7]: no decrease in tumor volumes
- c-MYC levels with LZK^Q240S expression (c-MYC; CAL33 cells treated with inhibitor): rescued loss in c-MYC levels
- c-MYC levels (c-MYC; CAL33 cells, 500 nM, within the first hour, maintained for 72 hours): reduction in c-MYC levels
- specificity of LZK inhibition (rescue of JNK signaling by LZK^Q240S) (LZK [8]): specifically inhibits LZK
- sensitivity (viability) [9]: sensitive
- cleaved caspase-3 expression (IHC) in tumors (CAL33 xenografts): increase in cleaved caspase-3 expression
- tumor growth (CAL33 xenografts): tumor growth was suppressed
- body weight (CAL33 xenografts; [13]): decreases in body weight
- toxicity (CAL33 xenografts; [13]): terminated early due to toxicity

SMILES: Cc1cnc(Nc2cc(C3CCN(CC4CC4)CC3)cc(N3CCC(F)(F)C3)n2)cn1 [compound 161]
- Kd (DLK): 4.3 nM
- Ratio (LZK/DLK) (LZK [10]; ratio of LZK Kd to DLK Kd): 0.8
- Kd (LZK [10]; read-out: Kd values): 3.3 nM
- Kd (LZK [10]; read-out: LZK KD): 3.3 nM
- dose-dependent inhibition of LZK (LZK [11]): dose-dependent inhibition
- sensitivity (colony formation) (OVCAR5 cells): sensitive
- sensitivity (colony formation) of ESCC cells expressing LZK^Q240S [12]: resistant to compound 161
